Values after ≈ are worked out from the molar mass of the structure shown.

One may read the IC50 as the concentration that inhibits the measured activity by half. A high value points to a need for much substance.

For the assay, the system named is KB. Kind of assay: Cytotoxicity against human KB cells. It is filed as functional, cell-based.
`C[C@H](C[C@@H](O)[C@@H]1OC1(C)C)[C@@H]1CC[C@]2(C)[C@]34O[C@@H]3C[C@H]3C(C)(C)C(=O)CC[C@]3(C)[C@H]4CC[C@@]12C` [DYVARIABILIN B] showed a 50% inhibitory concentration (IC50) of 10 µg/mL (≈ 21.2 µM).

With `C[C@H](C[C@@H](O)[C@@H]1OC1(C)C)[C@@H]1CC[C@]2(C)[C@@]34O[C@H]3C[C@H]3C(C)(C)C(=O)CC[C@]3(C)[C@H]4CC[C@@]12C` [DYVARIABILIN C], half-maximal inhibition (IC50) required 8.7 µg/mL (≈ 18.4 µM).

`C[C@H](C[C@@H](O)[C@@H]1OC1(C)C)[C@@H]1CC[C@]2(C)C3=CC[C@H]4C(C)(C)C(=O)CC[C@]4(C)[C@H]3CC[C@@]12C` [NILOTICIN]: half-maximal inhibition (IC50) required 8.4 µg/mL (≈ 18.4 µM).

The record behind these values is ChEMBL document CHEMBL1155702, “New tirucallane-type triterpenes from Dysoxylum variabile” (J Nat Prod, 2001).
